The source made the active and inactive calls. Peptide text beside a SMILES is read from it.
Experiments:
[1] = test system: Staphylococcus aureus; assay: Antimicrobial activity against Staphylococcus aureus ATCC 25923 assessed as reduction in bacterial growth by broth dilution method; assay type: functional
[2] = test system: Staphylococcus epidermidis; assay: Antimicrobial activity against multi-drug resistant Staphylococcus epidermidis assessed as reduction in bacterial growth by broth dilution method; assay type: functional
[3] = test system: Escherichia coli; assay: Antimicrobial activity against Escherichia coli ATCC 25922 assessed as reduction in bacterial growth by broth dilution method; assay type: functional
[4] = test system: Klebsiella pneumoniae; assay: Antimicrobial activity against multi-drug resistant Klebsiella pneumoniae assessed as reduction in bacterial growth by broth dilution method; assay type: functional
[5] = test system: Acinetobacter baumannii; assay: Antimicrobial activity against multi-drug resistant Acinetobacter baumannii assessed as reduction in bacterial growth by broth dilution method; assay type: functional
[6] = test system: L02; assay: Cytotoxicity against human LO2 cells at 2 to 256 uM measured after 24 hrs by CCK-8 method; assay type: toxicity, cell-based; conditions: l02, 24 h, dose 2-256 µM
[7] = test system: Staphylococcus aureus; assay: Antimicrobial activity against multi-drug resistant Staphylococcus aureus assessed as reduction in bacterial growth in presence of NaCl; assay type: functional, organism-based
[8] = test system: Staphylococcus aureus; assay: Antimicrobial activity against multi-drug resistant Staphylococcus aureus assessed as reduction in bacterial growth in presence of MgCl2; assay type: functional, organism-based
[9] = test system: Staphylococcus aureus; assay: Antimicrobial activity against multi-drug resistant Staphylococcus aureus assessed as reduction in bacterial growth in presence of FeCl3; assay type: functional, organism-based
[10] = test system: Escherichia coli; assay: Antimicrobial activity against multi-drug resistant Escherichia coli assessed as reduction in bacterial growth at 2 times MIC measured after 1 hrs in presence of chymotrypsin by microplate reader based analysis; assay type: functional, organism-based
[11] = test system: Staphylococcus aureus; assay: Antibacterial activity against Staphylococcus aureus ATCC 25923 at sub-inhibitory concentration measured after 15 passages for 18 hrs; assay type: functional
[12] = test system: Cell membrane; assay: Disruption of cell membrane in multi-drug resistant Staphylococcus aureus assessed as appearance of ruptured cell membrane at 2 times MIC measured for 120 mins by transmission electron microscopy analysis; assay type: subcellular
[13] = test system: Cell membrane; assay: Disruption of cell membrane in multi-drug resistant Staphylococcus aureus assessed as release of cell content at 2 times MIC measured for 120 mins by transmission electron microscopy analysis; assay type: subcellular
[14] = test system: Cell membrane; assay: Disruption of cell membrane in multi-drug resistant Escherichia coli assessed as appearance of ruptured cell membrane at 2 times MIC measured for 120 mins by transmission electron microscopy analysis; assay type: subcellular
[15] = test system: Cell membrane; assay: Disruption of cell membrane in multi-drug resistant Escherichia coli assessed as release of cell content at 2 times MIC measured for 120 mins by transmission electron microscopy analysis; assay type: subcellular
[16] = test system: Escherichia coli; assay: Bactericidal activity against multi-drug resistant Escherichia coli at 1 times MIC preincubated with LPS for 1 hrs followed by bacterial addition and measured after 18 hrs by microplate reader based analysis; assay type: functional, organism-based; conditions: time 19.0 hrs
[17] = test system: Cell membrane; assay: Induction of outer membrane permeabilization in multi-drug resistant Escherichia coli assessed as NPN uptake at 1 to 4 times MIC measured within 1 min by fluorescence based analysis; assay type: subcellular
[18] = test system: Escherichia coli; assay: Antibacterial activity against Escherichia coli ATCC 25922 infected in male Kunming mouse model assessed as reduction in bacterial load measured after 11 days; assay type: functional, organism-based; conditions: time 11.0 day
[19] = test system: Staphylococcus aureus; assay: Antibiofilm activity in methicillin-resistant Staphylococcus aureus assessed as eradication of formed biofilm by measuring reduction in viable bacterial count measured after 12 hrs by confocal microscopy based analysis; assay type: functional, organism-based
[20] = test system: Staphylococcus aureus; assay: Antibiofilm activity in methicillin-resistant Staphylococcus aureus assessed as eradication of formed biofilm at 1 to 4 times MIC measured after 12 hrs by confocal microscopy based analysis; assay type: functional, organism-based
[21] = test system: Escherichia coli; assay: Antibiofilm activity in […] assessed as eradication of formed biofilm at 1 to 4 times MIC measured after 12 hrs by confocal microscopy based analysis; assay type: functional, organism-based
[22] = test system: Escherichia coli; assay: Antibacterial activity against multidrug resistant Escherichia coli infected in male Kunming mouse model assessed as reduction in bacterial load measured after 11 days in presence of levofloxacin; assay type: functional, organism-based; conditions: time 11.0 day
[23] = test system: Escherichia coli; assay: Antibacterial activity against multidrug resistant Escherichia coli infected in male Kunming mouse model assessed as recovery of mouse weight measured after 11 days in presence of levofloxacin; assay type: functional, organism-based; conditions: time 11.0 day
[24] = test system: Escherichia coli; assay: Antibacterial activity against multidrug resistant Escherichia coli infected in male Kunming mouse model assessed as reduction in wound size measured after 3 to 5 days in presence of levofloxacin by caliper method; assay type: functional, organism-based; conditions: time 3-5 day
[25] = test system: Escherichia coli; assay: Antibacterial activity against multidrug resistant Escherichia coli infected in male Kunming mouse model assessed as reduction in wound size measured after 3 to 5 days by caliper method; assay type: functional, organism-based; conditions: time 3-5 day
[26] = test system: Escherichia coli; assay: Antibacterial activity against multidrug resistant Escherichia coli infected in male Kunming mouse model assessed as scabs thickening measured after 7 days by caliper method; assay type: functional, organism-based; conditions: time 7.0 day
[27] = test system: Escherichia coli; assay: Antibacterial activity against multidrug resistant Escherichia coli infected in male Kunming mouse model assessed as reduction in tissue hemorrhage in presence of levofloxacin by H and E staining based analysis; assay type: functional, organism-based
[28] = test system: Escherichia coli; assay: Antibacterial activity against multidrug resistant Escherichia coli infected in male Kunming mouse model assessed as reduction in inflammatory cell infiltration in presence of levofloxacin by H and E staining based analysis; assay type: functional, organism-based
[29] = test system: Escherichia coli; assay: Antibacterial activity against multidrug resistant Escherichia coli infected in male Kunming mouse model assessed as reduction in IL-6 expression by immunochemical analysis; assay type: functional, organism-based

CC[C@H](C)[C@H](NC(=O)[C@H](CCCCN)NC(=O)[C@@H](NC(=O)[C@H](CCCCN)NC(=O)[C@@H]1CCCN1C(=O)[C@H](Cc1c[nH]c2ccccc12)NC(=O)[C@H](Cc1c[nH]c2ccccc12)NC(=O)[C@H](Cc1c[nH]c2ccccc12)NC(=O)[C@@H]1CCCN1C(=O)[C@H](CCCCN)NC(=O)[C@@H](NC(=O)[C@H](CCCCN)NC(=O)[C@@H](NC(=O)[C@@H](N)CCCCN)[C@@H](C)CC)[C@@H](C)CC)[C@@H](C)CC)C(=O)N[C@@H](CCCCN)C(N)=O (H-KIKIKPWWWPKIKIK-NH2)
4 µM: MIC [2] | MIC [3] | MIC [4] | MIC [5]
active: Activity [7] | Activity [8] | Activity [9] | Activity [11] | Activity [12] | Activity [13] | Activity [14] | Activity [15] | Activity [17] | Activity [18] | Activity [19] Dose-dependent-effect | Activity [20] | Activity [21] | Activity [22] | Activity [23] | Activity [24] | Activity [25] | Activity [26] | Activity [27] | Activity [28] | Activity [29]
8 µM: MIC [1]
inactive: Activity [10] | Activity [16]
Toxic: Activity [6]
